Assay results reported in PubChem BioAssay AID1982 (Sanford-Burnham Center for Chemical Genomics, 2009).
The source made the active and inactive calls. No rule for the calls is given here.

Legend:
Test in all cases: kinase panel binding selectivity, selectivity assay, biochemical, KINOMEscan (AID 1982)
ABL2 = details: KINOMEscan 353-kinase binding panel, qPCR, at 10 µM, hits give low values
[1] = target: Calcium/calmodulin-dependent protein kinase type II subunit alpha (Homo sapiens) (UniProt Q9UQM7); details: KINOMEscan 353-kinase binding panel, qPCR; CAMK2A; at 10 µM; hits give low values
Sequence of Calcium/calmodulin-dependent protein kinase type II subunit alpha (Homo sapiens) (Q9UQM7 whole entry, looked up): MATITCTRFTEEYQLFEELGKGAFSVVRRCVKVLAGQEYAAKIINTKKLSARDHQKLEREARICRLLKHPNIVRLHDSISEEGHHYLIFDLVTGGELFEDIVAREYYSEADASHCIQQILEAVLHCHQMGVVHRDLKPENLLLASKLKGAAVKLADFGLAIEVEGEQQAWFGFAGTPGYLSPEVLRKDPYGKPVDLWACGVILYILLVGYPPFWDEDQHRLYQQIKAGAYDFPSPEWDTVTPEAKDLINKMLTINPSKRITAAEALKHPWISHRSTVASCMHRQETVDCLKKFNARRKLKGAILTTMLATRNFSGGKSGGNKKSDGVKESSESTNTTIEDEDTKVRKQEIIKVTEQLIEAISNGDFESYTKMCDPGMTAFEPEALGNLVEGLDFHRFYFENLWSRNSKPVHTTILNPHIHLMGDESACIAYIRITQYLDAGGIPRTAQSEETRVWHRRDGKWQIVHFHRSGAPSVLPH

[2] = target: Dual specificity protein kinase CLK2 (Homo sapiens) (UniProt P49760); details: KINOMEscan 353-kinase binding panel, qPCR, at 10 µM, hits give low values
Sequence of Dual specificity protein kinase CLK2 (Homo sapiens) (P49760 whole entry, looked up, the tested form may be a part): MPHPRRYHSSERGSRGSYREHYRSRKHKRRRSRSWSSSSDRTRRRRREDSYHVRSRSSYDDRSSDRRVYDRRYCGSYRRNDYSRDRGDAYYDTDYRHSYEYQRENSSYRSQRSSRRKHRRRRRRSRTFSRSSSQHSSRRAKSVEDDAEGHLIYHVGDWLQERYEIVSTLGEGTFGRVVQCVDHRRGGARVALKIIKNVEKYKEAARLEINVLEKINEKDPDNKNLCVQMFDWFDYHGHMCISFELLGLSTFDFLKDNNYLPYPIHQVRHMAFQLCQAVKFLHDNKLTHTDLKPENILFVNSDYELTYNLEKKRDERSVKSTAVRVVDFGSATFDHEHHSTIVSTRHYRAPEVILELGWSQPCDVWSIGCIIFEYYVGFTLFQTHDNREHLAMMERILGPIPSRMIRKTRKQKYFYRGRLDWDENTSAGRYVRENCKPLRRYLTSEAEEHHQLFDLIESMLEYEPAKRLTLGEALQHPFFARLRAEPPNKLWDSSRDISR

[3] = target: LIM domain kinase 1 (Homo sapiens) (UniProt P53667); details: KINOMEscan 353-kinase binding panel, qPCR; LIMK1; at 10 µM; hits give low values
Sequence of LIM domain kinase 1 (Homo sapiens) (P53667 whole entry, looked up, the tested form may be a part): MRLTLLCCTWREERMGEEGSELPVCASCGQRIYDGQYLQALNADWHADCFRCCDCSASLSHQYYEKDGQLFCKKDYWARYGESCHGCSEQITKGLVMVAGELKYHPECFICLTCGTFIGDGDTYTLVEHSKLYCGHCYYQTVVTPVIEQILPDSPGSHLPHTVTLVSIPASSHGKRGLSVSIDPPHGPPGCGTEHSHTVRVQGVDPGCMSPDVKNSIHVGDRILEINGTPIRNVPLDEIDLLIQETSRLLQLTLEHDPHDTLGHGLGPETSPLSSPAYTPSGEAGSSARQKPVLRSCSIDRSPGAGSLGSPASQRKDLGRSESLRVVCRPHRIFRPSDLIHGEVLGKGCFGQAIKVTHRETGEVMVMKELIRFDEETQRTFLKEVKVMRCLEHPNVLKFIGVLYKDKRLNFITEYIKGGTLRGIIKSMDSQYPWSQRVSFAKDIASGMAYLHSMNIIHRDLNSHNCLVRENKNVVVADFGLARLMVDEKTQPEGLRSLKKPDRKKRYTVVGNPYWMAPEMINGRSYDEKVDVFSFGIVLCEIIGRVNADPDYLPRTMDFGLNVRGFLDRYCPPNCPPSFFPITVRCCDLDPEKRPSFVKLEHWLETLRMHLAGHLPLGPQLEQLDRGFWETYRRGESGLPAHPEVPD

[4] = target: Ribosomal protein S6 kinase alpha-3 (Homo sapiens) (UniProt P51812); details: KINOMEscan 353-kinase binding panel, qPCR; RPS6KA3(Kin.Dom.1); at 10 µM; hits give low values
Sequence of Ribosomal protein S6 kinase alpha-3 (Homo sapiens) (P51812 whole entry, looked up): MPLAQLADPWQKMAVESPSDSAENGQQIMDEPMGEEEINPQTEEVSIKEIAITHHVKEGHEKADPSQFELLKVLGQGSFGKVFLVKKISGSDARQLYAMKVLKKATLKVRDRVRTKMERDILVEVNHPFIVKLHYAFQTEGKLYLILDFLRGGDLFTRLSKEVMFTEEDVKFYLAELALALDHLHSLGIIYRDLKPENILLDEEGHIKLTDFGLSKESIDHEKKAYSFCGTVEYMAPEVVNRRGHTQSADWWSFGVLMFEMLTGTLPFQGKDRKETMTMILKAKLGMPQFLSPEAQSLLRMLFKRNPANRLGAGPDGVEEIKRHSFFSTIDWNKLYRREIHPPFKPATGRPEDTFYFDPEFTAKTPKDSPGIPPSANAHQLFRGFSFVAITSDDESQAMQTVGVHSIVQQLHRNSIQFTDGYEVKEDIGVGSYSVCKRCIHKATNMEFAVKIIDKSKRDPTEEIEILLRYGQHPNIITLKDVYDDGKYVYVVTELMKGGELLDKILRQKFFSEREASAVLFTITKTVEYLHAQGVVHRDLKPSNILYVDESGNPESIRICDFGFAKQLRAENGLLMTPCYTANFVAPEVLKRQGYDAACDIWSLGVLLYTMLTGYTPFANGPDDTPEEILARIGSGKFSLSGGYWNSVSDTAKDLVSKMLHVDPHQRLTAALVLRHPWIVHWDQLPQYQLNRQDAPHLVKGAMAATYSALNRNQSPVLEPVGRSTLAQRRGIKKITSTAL

[5] = target: Ribosomal protein S6 kinase alpha-4 (Homo sapiens) (UniProt O75676); details: KINOMEscan 353-kinase binding panel, qPCR, at 10 µM, hits give low values
Sequence of Ribosomal protein S6 kinase alpha-4 (Homo sapiens) (O75676 whole entry, looked up): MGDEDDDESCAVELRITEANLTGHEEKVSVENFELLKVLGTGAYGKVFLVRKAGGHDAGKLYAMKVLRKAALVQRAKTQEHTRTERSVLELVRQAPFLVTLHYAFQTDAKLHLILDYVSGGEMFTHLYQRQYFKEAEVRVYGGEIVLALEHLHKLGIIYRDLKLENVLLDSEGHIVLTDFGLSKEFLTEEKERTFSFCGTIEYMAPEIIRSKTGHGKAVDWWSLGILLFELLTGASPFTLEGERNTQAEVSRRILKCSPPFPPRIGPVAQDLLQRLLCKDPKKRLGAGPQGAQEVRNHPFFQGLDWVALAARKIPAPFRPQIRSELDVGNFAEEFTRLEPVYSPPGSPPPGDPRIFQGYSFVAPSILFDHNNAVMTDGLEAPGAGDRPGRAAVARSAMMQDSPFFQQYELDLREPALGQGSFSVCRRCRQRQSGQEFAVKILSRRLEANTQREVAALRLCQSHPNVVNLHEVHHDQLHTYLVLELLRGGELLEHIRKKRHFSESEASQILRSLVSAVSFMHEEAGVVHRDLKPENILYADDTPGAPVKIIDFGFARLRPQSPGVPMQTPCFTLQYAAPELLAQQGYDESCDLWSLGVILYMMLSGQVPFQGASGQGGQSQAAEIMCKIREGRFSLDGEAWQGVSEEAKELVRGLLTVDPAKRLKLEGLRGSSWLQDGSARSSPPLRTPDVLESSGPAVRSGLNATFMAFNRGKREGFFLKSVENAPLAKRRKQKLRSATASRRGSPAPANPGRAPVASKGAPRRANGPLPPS

Measured: percent of control binding

Cc1cc2nc(NCCCO)n(CC(=O)c3cc(C(C)(C)C)c(O)c(C(C)(C)C)c3)c2cc1C
inactive: ABL2 85% | [1] 85% | [2] 80% | [3] 95% | [4] 92% | [5]; RPS6KA4(Kin.Dom.1) 100% | [5]; RPS6KA4(Kin.Dom.2) 100%
